Measured values as given in patent US8034812B2, “Imidazopyridazine derivative having kinase inhibitory activity and pharmaceutical agent thereof” (Takeda Pharmaceutical Company Limited, priority 2006, dated 2011).

Key:
[1] = biological target: T1, VEGFR2 intracellular domain protein (Homo sapiens, UniProt P35968); experiment: Determination of vascular endothelial growth factor receptor 2 (VEGFR2) kinase inhibitory activity (AlphaScreen); format: biochemical; conditions: read-out: VEGFR2 kinase inhibitory rate
T1 construct: made in house; host or cells: SF-21 insect cells, recombinant baculovirus BAC-VEGFR2
Description: Human vascular endothelial growth factor receptor 2 (hereinafter to be referred to as VEGFR2) gene was cloned by PCR using cDNA Libraries Human Placenta (Clontech) as a template. The primer used for PCR was prepared from base sequence (Genbank Accession AF035121) information of VEGFR2 gene by adding a base sequence encoding flag peptide and a recognition sequence of the restriction enzyme to a base sequence (2671-4374 of Genbank Accession AF035121) encoding the VEGFR2 intracellular domain region, so that the protein contains an N-terminal Flag tag. The primer base sequence is shown below.
SF-21 cells were sown at 1×10^6 cells/mL to Sf-900II SFM medium (1 L, Invitrogen) containing 10% fetal bovine serum (trace), 50 mg/L Gentamicin (Invitrogen) and 0.1% Pluronic F-68 (Invitrogen), and shaking culture was performed using a 2 L volume Erlenmeyer flask at 27° C., 100 rpm. After culturing for 24 hrs, recombinant baculovirus BAC-VEGFR2 (13.4 mL) was added to the mixture, and the mixture was further cultured for 3 days. The culture medium was centrifuged at 2,000 rpm for 5 min to give virus-infected cells. The infected cells were washed with a phosphate buffered saline (Invitrogen), centrifuged under the same conditions, and the cells were preserved at −80° C. The cryopreserved cells were thawed in ice, suspended in buffer A (50 mM Tris buffer (30 mL, pH 7.4) containing 20% glycerol, 0.15 M NaCl) supplemented with Complete Protease Inhibitor (Boehringer), and ruptured 3 times with a Polytron homogenizer (Kinematica) at 20,000 rpm for 30 sec. The ruptured medium was clarified by centrifugation at 40,000 rpm for 30 min and filtered with a 0.45 μm filter. The filtrate was passed through a column packed with Anti-FLAG M2 Affinity Gel (4 mL, Sigma) at a flow rate of about 0.5 mL/min. The column was washed with buffer A, and eluted with buffer A containing 100 μg/mL of FLAG peptide. The eluate was concentrated with Vivaspin 20 (Vivascience) having a molecular weight cut off of 30K. The buffer of this concentrate was exchanged using NAP™ 25 column (Amersham Bioscience) equilibrated with buffer A. The fractions containing intracellular domain protein of VEGFR2 were collected, glycerol was added to the final concentration of 50% and cryopreserved at −80° C.
A test compound dissolved in dimethyl sulfoxide (DMSO) was diluted with a buffer (50 mM Tris-HCl (pH 7.5), 5 mM MgCl2, 5 mM MnCl2, 2 mM dithiothreitol, 0.01% Tween-20). To this compound solution (5 μL) was added a buffer (10 μL) containing 50 ng/mL of VEGFR2 intracellular domain protein and 250 ng/mL of biotin labeled polypeptide biotinyl-poly-Glu:Tyr (4:1) (CIS bio International). To the obtained mixture was added a buffer (10 μL) containing ATP (25 μM), the mixture was allowed to react at 25° C. for 5 min and the reaction was quenched with 25 μL of a stop solution (100 mM EDTA disodium salt, 62.5 mM HEPES buffer (pH 7.4), 250 mM NaCl, 0.1% bovine serum albumin, 10 μg/mL AlphaScreen assay streptavidin donor beads (Streptavidin Donor beads: PerkinElmer), 10 μg/mL AlphaScreen assay anti-phosphotyrosine recognition antibody PY-100 binding acceptor beads (Anti-phosphotyrosine (P-Tyr-100) Acceptor beads: PerkinElmer)). The reaction solution was allowed to stand at 25° C. for 16 hrs, and the wells were counted using a plate reader Fusion™ (PerkinElmer). The kinase inhibitory rate (%) of the test compound was calculated by the following formula: Inhibitory rate(%)=(1−(count of test compound−blank)÷(control−blank))×100

[2] = biological target: T2, PDGFRβ intracellular domain protein (Homo sapiens, UniProt P09619); experiment: Determination of platelet-derived growth factor receptor β (PDGFRβ) kinase inhibitory activity (AlphaScreen); format: biochemical
T2 construct: 125 ng/ml of PDGFRβ intracellular domain protein (UPSTATE); purchased UPSTATE
Description: (§1) A test compound dissolved in dimethyl sulfoxide (DMSO) was diluted with a buffer (50 mM Tris-HCl (pH 7.5), 5 mM MgCl2, 5 mM MnCl2, 2 mM dithiothreitol, 0.01% Tween-20). To this compound solution (5 μL) was added a buffer (10 μL) containing 125 ng/ml of PDGFRβ intracellular domain protein (UPSTATE) and 250 ng/mL of biotin labeled polypeptide biotinyl-poly-Glu:Tyr (4:1) (CIS bio International). At 5 min after mixing kinase enzyme and the compound and biotin labeled polypeptide, to the obtained mixture was added a buffer (10 μL) containing ATP (25 μM), the mixture was allowed to react at 25° C. for 30 min and the reaction was quenched with 25 μL of a stop solution (100 mM EDTA disodium salt, 62.5 mM HEPES buffer (pH 7.4), 250 mM NaCl, 0.1% bovine serum albumin, 10 μg/mL AlphaScreen assay streptavidin donor beads (Streptavidin Donor Beads: PerkinElmer), 10 μg/mL AlphaScreen assay anti-phosphotyrosine recognition antibody PT-66 binding acceptor beads (Anti-phosphotyrosine (P-Tyr-66) Acceptor beads: PerkinElmer)). The reaction solution was allowed to stand at 25° C. for 16 hrs, and the wells were counted using a plate reader Fusion™ (PerkinElmer). The kinase inhibitory rate (%) of the test compound was calculated by the following formula: Inhibitory rate(%)=(1−(count of test compound=blank)÷(control−blank))×100
(§2) The count of the solution reacted without addition of the compound was used as a “control”, and the count of the solution without the compound and ATP was used as a “blank”.

[3] = test system: Human umbilical vein-derived vascular endothelial cells (HUVEC); experiment: Vascular endothelial cell growth inhibitory test (VEGF-stimulated HUVEC, XTT); format: cell-based; conditions: 120 h, 5 days of culture
Description: To be specific, HUVEC was suspended in a vascular endothelial cell medium containing the aforementioned 5% bovine fetal serum and plated on a 96 well flat bottom plate by 50 μL (3000 cells) each well. After culture overnight, various concentrations of the test substance and 120 ng/mL of vascular endothelial growth factor (VEGF) were dissolved in a vascular endothelial cell medium containing 5% bovine fetal serum and added to each well by 50 μL. After 5 days of culture, a XTT reagent (Wako Pure Chemical Industries, Ltd.) was added to each well by 10 μL, and the mixture was reacted in an incubator at 37° C., 5% carbon dioxide for 2-3 hr. The absorbance at 450 nm was measured by a microtiter plate reader and the cell growth inhibitory activity was determined.

[4] = biological target: T3, PDGFRα intracellular domain protein (Homo sapiens, UniProt P16234); experiment: Determination of platelet-derived growth factor receptor α (PDGFRα) kinase inhibitory activity (AlphaScreen); format: biochemical
T3 construct: 125 ng/ml of PDGFRα intracellular domain protein (UPSTATE); purchased UPSTATE
Description: as §1, with “PDGFRα” for “PDGFRβ”, “beads:” for “Beads:”, “compound−blank)÷(control−blank))×100” for “compound=blank)÷(control−blank))×100”
as §2

T1 sequence (P35968 786-1356 limits assumed): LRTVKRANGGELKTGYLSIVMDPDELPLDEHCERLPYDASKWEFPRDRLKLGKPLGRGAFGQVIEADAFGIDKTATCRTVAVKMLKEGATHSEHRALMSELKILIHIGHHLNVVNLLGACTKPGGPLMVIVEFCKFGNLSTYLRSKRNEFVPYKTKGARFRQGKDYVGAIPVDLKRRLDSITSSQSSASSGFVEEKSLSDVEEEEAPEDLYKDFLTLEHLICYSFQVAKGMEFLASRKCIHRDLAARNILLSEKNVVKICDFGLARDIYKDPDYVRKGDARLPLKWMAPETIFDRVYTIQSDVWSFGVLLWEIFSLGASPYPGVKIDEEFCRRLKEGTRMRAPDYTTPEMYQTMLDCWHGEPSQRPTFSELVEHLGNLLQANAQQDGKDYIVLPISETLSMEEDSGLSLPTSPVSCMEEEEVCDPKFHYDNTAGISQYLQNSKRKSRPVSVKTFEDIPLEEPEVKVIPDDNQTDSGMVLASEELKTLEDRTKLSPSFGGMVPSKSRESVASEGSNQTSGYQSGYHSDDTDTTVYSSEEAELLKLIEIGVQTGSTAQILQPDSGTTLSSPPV
T3 sequence (P16234 550-1089 limits assumed): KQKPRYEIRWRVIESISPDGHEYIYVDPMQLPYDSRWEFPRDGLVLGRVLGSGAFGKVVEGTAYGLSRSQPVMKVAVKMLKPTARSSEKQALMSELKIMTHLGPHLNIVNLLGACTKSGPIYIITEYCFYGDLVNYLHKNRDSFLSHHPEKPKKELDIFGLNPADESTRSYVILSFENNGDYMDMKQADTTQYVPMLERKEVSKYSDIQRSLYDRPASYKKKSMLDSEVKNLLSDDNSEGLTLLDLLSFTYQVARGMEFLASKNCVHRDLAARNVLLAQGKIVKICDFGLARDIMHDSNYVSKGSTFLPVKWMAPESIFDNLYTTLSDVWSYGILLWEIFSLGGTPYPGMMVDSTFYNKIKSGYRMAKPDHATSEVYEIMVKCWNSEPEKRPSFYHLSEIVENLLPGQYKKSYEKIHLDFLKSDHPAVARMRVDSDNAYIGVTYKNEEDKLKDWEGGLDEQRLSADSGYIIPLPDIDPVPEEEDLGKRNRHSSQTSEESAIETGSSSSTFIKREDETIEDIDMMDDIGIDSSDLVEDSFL
T2 sequence (P09619 554-1106 limits assumed): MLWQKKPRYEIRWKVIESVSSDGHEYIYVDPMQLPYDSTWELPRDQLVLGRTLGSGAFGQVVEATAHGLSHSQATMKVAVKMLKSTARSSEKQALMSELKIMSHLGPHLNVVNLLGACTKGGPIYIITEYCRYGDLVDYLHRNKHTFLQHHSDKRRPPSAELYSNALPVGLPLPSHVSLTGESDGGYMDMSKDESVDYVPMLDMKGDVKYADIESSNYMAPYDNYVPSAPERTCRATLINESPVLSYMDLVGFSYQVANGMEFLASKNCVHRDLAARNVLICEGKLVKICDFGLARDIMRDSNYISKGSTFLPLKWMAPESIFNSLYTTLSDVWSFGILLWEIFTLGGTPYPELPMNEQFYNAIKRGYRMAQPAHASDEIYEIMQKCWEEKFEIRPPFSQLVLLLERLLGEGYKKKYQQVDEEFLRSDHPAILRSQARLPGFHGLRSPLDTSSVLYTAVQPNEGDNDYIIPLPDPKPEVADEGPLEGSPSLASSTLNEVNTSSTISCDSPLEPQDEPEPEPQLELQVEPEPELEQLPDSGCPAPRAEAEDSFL

Row | Structure (SMILES) | inhibition at 1 µM [1] | IC50 [2] | IC50 [3] | IC50 [4]
1 | COc1cc(C(=O)Nc2cc(Oc3ccc4nc(NC(=O)C5CC5)cn4n3)ccc2C)n(C)n1 [Example 302, N-[5-({2-[(cyclopropylcarbonyl)amino]imidazo[1,2-b]pyridazin-6-yl}oxy)-2-methylphenyl]-3-methoxy-1-methyl-1H-pyrazole-5-carboxamide] | ≥ 90% | ≤ 500 nM | ≤ 500 nM | ≤ 500 nM
2 | CCc1nc(C)c(C(=O)Nc2cc(Oc3ccc4nc(NC(=O)C5CC5)cn4n3)ccc2F)o1 [Example 314, N-[5-({2-[(cyclopropylcarbonyl)amino]imidazo[1,2-b]pyridazin-6-yl}oxy)-2-fluorophenyl]-2-ethyl-4-methyl-1,3-oxazole-5-carboxamide] | ≥ 90% | ≤ 500 nM | ≤ 500 nM | ≤ 500 nM
3 | Cc1cc(C(=O)Nc2cccc(Nc3ccc4nc(NC(=O)C5CC5)cn4n3)c2)n(C)n1 [Example 317, N-[3-({2-[(cyclopropylcarbonyl)amino]imidazo[1,2-b]pyridazin-6-yl}amino)phenyl]-1,3-dimethyl-1H-pyrazole-5-carboxamide] | ≥ 90% | ≤ 500 nM | ≤ 500 nM | ≤ 500 nM
